Activity calls are given as the source filed them. No cut-off for these calls is given here.
Legend:
SW480 [1] = test: Induction of apoptosis in human SW480 cells assessed as accumulation at subG1 phase at 10 uM after 48 hrs in presence of pan caspase inhibitor zVAD by Annexin-V-FITC/propidium iodide staining based flow cytometry (reference value: 15.3%); type: functional
SW480 [2] = test: Induction of apoptosis in human SW480 cells assessed as apoptotic cells at 10 uM after 48 hrs by annexin V-FITC/propidium iodide staining based flow cytometry (reference value: 9.6 to 15.3%); type: functional
SW480 [3] = test: Induction of apoptosis in human SW480 cells assessed as apoptotic cells at 10 uM after 48 hrs in presence of autophagy inhibitor 3-MA by annexin V-FITC/propidium iodide staining based flow cytometry (reference value: 9.6 to 15.3%); type: functional
SW480 [4] = test: Induction of apoptosis in human SW480 cells assessed as apoptotic cells at 10 uM after 48 hrs in presence of autophagy inhibitor bafilomycin A1 by annexin V-FITC/propidium iodide staining based flow cytometry (reference value: 9.6 to 15.3%); type: functional
[5] = Cell cycle arrest in human SW480 cells assessed as accumulation at G1 phase at 10 uM after 48 hrs by propidium iodide staining based flow cytometry (reference value: 61.2%); type: functional
[6] = Antiproliferative activity against human SW480 cells after 72 hrs by MTT assay; type: functional, cell-based; conditions: SW480, 72 h
SW480 [7] = test: Induction of apoptosis in human SW480 cells assessed as apoptotic cells at 10 uM after 48 hrs in presence of autophagy inducer rapamycin by annexin V-FITC/propidium iodide staining based flow cytometry (reference value: 9.6 to 15.3%); type: functional
[8] = Cell cycle arrest in human SW480 cells assessed as accumulation at G1 phase at 3 uM after 48 hrs by propidium iodide staining based flow cytometry (reference value: 61.2%); type: functional
HT-29 [9] = test: Induction of apoptosis in human HT-29 cells assessed as apoptotic cells at 10 uM after 48 hrs by annexin V-FITC/propidium iodide staining based flow cytometry (reference value: 15.7 to 19.6%); type: functional
[10] = Cell cycle arrest in human SW480 cells assessed as accumulation at G1 phase at 1 uM after 48 hrs by propidium iodide staining based flow cytometry (reference value: 61.2%); type: functional
HT-29 [11] = test: Induction of apoptosis in human HT-29 cells assessed as apoptotic cells at 10 uM after 48 hrs in presence of autophagy inhibitor bafilomycin A1 by annexin V-FITC/propidium iodide staining based flow cytometry (reference value: 15.7 to 19.6%); type: functional
SW480 [12] = test: […] of autophagy in human SW480 cells expressing mCherry-eGFPeLC3 assessed as accumulation of autophagosomes at 10 uM after 2 hrs by confocal microscopic analysis; type: functional, cell-based
SW480 [13] = test: Induction of apoptosis in human SW480 cells after 48 hrs by annexin V-FITC/propidium iodide staining based flow cytometry; type: functional, cell-based
SW480 [14] = test: Induction of apoptosis in human SW480 cells assessed as necrotic cells at 10 uM after 48 hrs by annexin V-FITC/propidium iodide staining based flow cytometry (reference value: 2.8%); type: functional
[15] = Cell cycle arrest in human SW480 cells assessed as accumulation at subG1 phase at 3 uM after 48 hrs by propidium iodide staining based flow cytometry (reference value: 5.7%); type: functional
SW480 [16] = test: Induction of apoptosis in human SW480 cells assessed as increase in LC3-2 level at 10 uM after 48 hrs in presence of autophagy inhibitor bafilomycin A1 by Western blot analysis; type: functional, cell-based
[17] = Cell cycle arrest in human SW480 cells assessed as accumulation at subG1 phase at 1 uM after 48 hrs by propidium iodide staining based flow cytometry (reference value: 5.7%); type: functional
SW480 [18] = test: Induction of apoptosis in human SW480 cells assessed as apoptotic cells at 3 uM after 48 hrs by annexin V-FITC/propidium iodide staining based flow cytometry (reference value: 10.6%); type: functional
SW480 [19] = test: Induction of apoptosis in human SW480 cells assessed as necrotic cells at 1 uM after 48 hrs by annexin V-FITC/propidium iodide staining based flow cytometry (reference value: 2.8%); type: functional
SW480 [20] = test: Induction of apoptosis in beclin-1 silenced human SW480 cells assessed as apoptotic cells at 10 uM after 48 hrs by annexin V-FITC/propidium iodide staining based flow cytometry (reference value: 14.4%); type: functional
[21] = Cell cycle arrest in human SW480 cells assessed as accumulation at subG1 phase at 10 uM after 48 hrs by propidium iodide staining based flow cytometry (reference value: 5.7 to 15.3%); type: functional
HT-29 [22] = test: Induction of apoptosis in human HT-29 cells assessed as apoptotic cells at 10 uM after 48 hrs in presence of autophagy inhibitor CQ by annexin V-FITC/propidium iodide staining based flow cytometry (reference value: 15.7 to 19.6%); type: functional
SW480 [23] = test: Induction of apoptosis in human SW480 cells assessed as accumulation at subG1 phase at 10 uM after 48 hrs in presence of autophagy inducer rapamycin by propidium iodide staining based flow cytometry (reference value: 5.7 to 15.3%); type: functional
SW480 [24] = test: Induction of autophagy in human SW480 cells assessed as increase in LC3-2 level at 10 uM after 1 to 4 hrs by Western blot analysis; type: functional, cell-based
[25] = Cell cycle arrest in human SW480 cells after 48 hrs by propidium iodide staining based flow cytometry; type: functional
SW480 [26] = test: Induction of apoptosis in human SW480 cells assessed as necrotic cells at 3 uM after 48 hrs by annexin V-FITC/propidium iodide staining based flow cytometry (reference value: 2.8%); type: functional
SW480 [27] = test: Induction of apoptosis in human SW480 cells assessed as apoptotic cells at 1 uM after 48 hrs by annexin V-FITC/propidium iodide staining based flow cytometry (reference value: 10.6%); type: functional
SW480 [28] = test: Induction of apoptosis in human SW480 cells assessed as apoptotic cells at 10 uM after 48 hrs in presence of autophagy inhibitor CQ by annexin V-FITC/propidium iodide staining based flow cytometry (reference value: 9.6 to 15.3%); type: functional

Cn1cnc2c(F)c(Nc3ccc(Br)cc3Cl)c(C(=O)NOCCO)cc21 [SELUMETINIB]
Activity (SW480 [1]): 24.1% | Activity (SW480 [2]): 29 - 42.9% | Activity (SW480 [3]): 41.1% | Activity (SW480 [4]): 64.9% | Activity [5]: 58% | IC50 [6]: 422 nM | Activity (SW480 [7]): 21.4% | Activity [8]: 59.6% | Activity (HT-29 [9]): 43.9 - 51.2% | Activity [10]: 75% | Activity (HT-29 [11]): 68.3% | inhibition (SW480 [12]): Active | Activity (SW480 [13]): Dose-dependent effect | Activity (SW480 [14]): 5.3% | Activity [15]: 17.8% | Activity (SW480 [16]): Active | Activity [17]: 10% | Activity (SW480 [18]): 23.1% | Activity (SW480 [19]): 4.2% | Activity (SW480 [20]): 53.3% | Activity [21]: 23.7 to 42.9% | Activity (HT-29 [22]): 58.6% | Activity (SW480 [23]): 11.9% | Activity (SW480 [24]): Active | Activity [25]: Dose-dependent effect | Activity (SW480 [26]): 4.9% | Activity (SW480 [27]): 17.4% | Activity (SW480 [28]): 55.4%
